In this assay the test system is hippocampal slices taken from young rats. As to the kind of experiment: Plasticity induced by low-frequency stimulation (LTD) in hippocampal slices. Type of assay: cell-based, Wistar rats. The protocol: After decapitation, brains of either adult ([…], for the induction of long-term potentiation) or young (2–3 weeks old, for the induction of long-term depression) Wistar rats were rapidly removed, and the hippocampus was dissected out. Transverse hippocampal slices (450 μm thickness) were immediately placed in an ice-cold cutting buffer containing 124 mM NaCl, 3 mM KCl, 1.0 mM Na2HPO4, 25 mM NaHCO3, 0.5 mM CaCl2, 5.0 mM MgSO4, 10 mM glucose, saturated with 95% O2 and 5% CO2. The slices were then maintained in an interface chamber at room temperature, and perfused at flow rate of 1–2 mL/min with artificial cerebrospinal fluid (ACSF). The composition of ACSF contained 124 mM NaCl, 4.4 mM KCl, 1.0 mM Na2HPO4, 25 mM NaHCO3, 2.0 mM or 2.5 mM CaCl2, 1.0 mM MgSO4, 10 mM glucose, gassed with 95% O2 and 5% CO2. The field Excitatory Postsynaptic Potentials (fEPSP) was evoked by test pulses through a bipolar stimulating electrode placed on the Schaffer collateral/commissural pathway, and recorded from the stratum radiatum of CA1 using a glass micropipette electrode (5–10 MΩ) filled with 2 M NaCl. The test pulse duration was 100 μsec, and test responses were elicited at 0.02 Hz. To record field potentials in the cortico-amygdala pathway, a stimulating electrode was placed in the external capsule, which contained fibers from the auditory cortex to the lateral amygdala. Bicuculine (10 μM) was present in the perfusion solution when the fEPSPs of amygdala were recorded. To increase the effectiveness of fused pyrazolyl compounds that were applied through the perfusion system, the ACSF level in the recording chamber was sufficiently high to cover the hippocampal slices but not to float them. All fused pyrazolyl compounds were perfused in ACSF.
Evoked fEPSPs were recorded and data were analyzed. The initial slope of the fEPSPs was calculated, and the data were expressed as percentages of the average of the base-line slope of the fEPSPs.
Compound 1 on plasticity induced by low-frequency stimulation (LFS): LFS (900 pulses at 1 Hz) was delivered to hippocampal slices taken from young rats ([…]) to induce long-term depression (LTD). Stimulation of hippocampal slices at 1 Hz for 3 min produced no LTD of synaptic transmission. However, this short-duration LFS induced significant LTD in the presence of Compound 1 (83.4±10.9%, n=3). […] A weaker electrical stimulation at 0.02 Hz was delivered in the presence of both nitric oxide donor nitroprusside ([…]) and Compound 1 (1.6 μM). Simultaneous perfusion of the nitric oxide donor nitroprusside (30 μM) and Compound 1 (1.6 μM) induced LTD.

With `OCc1ccc(-c2nn(Cc3ccccc3)c3ccccc23)o1` [Compound 1, 1-benzyl-3-(5′-hydroxymethyl-2′-furyl)-indazole], the “plasticity with perfusion during LFS” value (1.6 μM perfused for 15 min during LFS (900 pulses at 1 Hz)) was “reversed the LTD plasticity into LTP”. Besides, the “potentiation of fEPSP at 0.02 Hz stimulation, substance alone” value (0.02 Hz stimulation, alone) is “produced no potentiation”. For the setting “0.02 Hz stimulation, simultaneous perfusion of nitroprusside (30 μM) and Compound 1 (1.6 μM)”, the “plasticity at 0.02 Hz with nitric oxide donor nitroprusside” value is given as “induced LTD”. For the same molecule, the “fEPSP (LTD) after short-duration LFS” value (1 Hz for 3 min, in the presence of Compound 1, young rats) turned out to be 83.4±10.9%.

(Values after patent publication US7049334B2, “Enhancement of learning and memory and treatment of amnesia” (priority 2001, dated 2006).)
